Reference: US5147876A, “2,6-di,2,4,6-, 2,5,6-tri and 2,4,5,6-tetra-substituted pyrimidines, their pharmaceutically acceptable salts, pharmaceutical compositions containing same and their use in the treatment of neurological diseases” (Mitsui Petrochemical Industries, Ltd., priority 1988, dated 1992)

Key:
[1] = test system: neuro-2a (mouse neuroblastoma cells); test: Action on neuro-2a: proportion of cells containing outgrown neurites; assay type: cell-based; settings: mean ± S.D.
Experimental: (§1) The effects of the compounds of this invention on neuroblastoma cells were examined by the following method.
(§2) Mouse neuro 2a cells in the logarithmic growth period in the Dulbecco's modified Eagle's medium DMEM, containing 100 units/ml of penicillin G sodium and 100 micrograms/ml of streptomycin sulfate]containing 10 % of FCS were seeded in a 48-well plate so that the number of cells was 1,000 cells/well, and cultured for one day in 0.25 ml of the culture fluid in each well in an incubator containing 5 % of carbon dioxide gas in air at 37° C. Then, a 4 % aqueous glutaraldehyde solution in the same amount as a medium (0.25 ml) was added, and the culture fluid was left to stand at room temperature for 2 hours to fix the cells. After washing with water, a 0.05 % aqueous solution of methylene blue was added to stain the cells Under a microscope, the number of cells containing outgrown neurites (cells having at least one neurite with a length of at least two times as large as the long diameter of the cell) was counted visually, and the proportion of these cells in the entire cells was calculated. The well was observed over 5 or more visual fields (at least 2 % of the entire surface area of the well) continuous to the left and right from a mark put at the center of the well, and more than 200 cells was counted. One drug compound was used in 6 different concentrations at most, and three runs were conducted for each concentrations.

[2] = test system: NS-20Y (mouse neuroblastoma cells); test: Activity on NS-20Y cells: appearance of neurites; assay type: cell-based
Experimental: as §1, §2
Mouse neuroblastoma cells NS-20Y were similarly cultured in a dish coated with polyornithine, and the effects of the compounds were examined.

Q: For `Cc1ccc(S(=O)(=O)O)cc1.Cc1ccccc1C(=O)N(C)c1ccnc(N2CCC(c3ccccc3)CC2)n1` [Compound 171-7], which “Number of cells having neurites with a length at least two times the diameter of each cell/total number of cells” value (from here on “Number … of each cell/total number of cells”) ([1]; 0.03 mM) is on record?
A: 8.5 ± 1.0%

Q: And the “Number … of each cell/total number of cells” value ([1]; 0.1 mM)?
A: 6.7 ± 3.1%

Q: And the “Number of cells in which neurites appeared/total number of cells” value ([2]; 24 hours, 0.1 mM)?
A: 4/50

Q: And the “Number of cells in which neurites appeared/total number of cells” value ([2]; 48 hours, 0.1 mM)?
A: 2/50

Q: For `CN(C)CCN(C(=O)c1ccccc1)c1ccnc(N2CCC(c3ccccc3)CC2)n1` [Compound 200], which “Number … of each cell/total number of cells” value ([1]; 0.01 mM) is on record?
A: 4.2 ± 1.6%

Q: And the “Number … of each cell/total number of cells” value ([1]; 0.03 mM)?
A: 7.6 ± 1.6%

Q: What about the “Number of cells in which neurites appeared/total number of cells” value ([2]; 24 hours, 0.02 mM) of the same molecule?
A: 4/50

Q: What about the “Number of cells in which neurites appeared/total number of cells” value ([2]; 48 hours, 0.02 mM) of the same molecule?
A: 2/50

Q: For `CN(C(=O)C(C)(C)C)c1ccnc(N2CCC(c3ccccc3)CC2)n1` [Compound 224], which “Number … of each cell/total number of cells” value ([1]; 0.03 mM) is on record?
A: 4.6 ± 1.7%

Q: What about the “Number … of each cell/total number of cells” value ([1]; 0.1 mM) of the same molecule?
A: 5.5 ± 1.5%

Q: What about the “Number of cells in which neurites appeared/total number of cells” value ([2]; 24 hours, 0.02 mM) of the same molecule?
A: 6/50

Q: What about the “Number of cells in which neurites appeared/total number of cells” value ([2]; 48 hours, 0.02 mM) of the same molecule?
A: 3/50

Q: With `CN(C(=O)c1ccc(F)cc1)c1ccnc(N2CCC(c3ccccc3)CC2)n1` [Compound 242] as the molecule, how does the “Number … of each cell/total number of cells” value ([1]; 0.1 mM) read?
A: 17.0 ± 2.3%

Q: What about the “Number … of each cell/total number of cells” value ([1]; 0.3 mM) of the same molecule?
A: 12.8 ± 6.3%

Q: And the “Number … of each cell/total number of cells” value ([1]; 1 mM)?
A: 9.4 ± 3.9%

Q: And the “Number of cells in which neurites appeared/total number of cells” value ([2]; 24 hours, 0.2 mM)?
A: 4/50

Q: And the “Number of cells in which neurites appeared/total number of cells” value ([2]; 24 hours, 0.4 mM)?
A: 6/50

Q: And the “Number of cells in which neurites appeared/total number of cells” value ([2]; 48 hours, 0.1 mM)?
A: 6/50

Q: What about the “Number of cells in which neurites appeared/total number of cells” value ([2]; 48 hours, 0.2 mM) of the same molecule?
A: 11/50

Q: Which “Number … of each cell/total number of cells” value ([1]; 0.1 mM) does the source give for `CN(C(=O)c1ccccc1)c1ccnc(N2CCOCC2)n1` [Compound 336] here?
A: 5.8 ± 2.4%

Q: What about the “Number … of each cell/total number of cells” value ([1]; 0.3 mM) of the same molecule?
A: 6.3 ± 2.8%

Q: And the “Number of cells in which neurites appeared/total number of cells” value ([2]; 24 hours, 0.2 mM)?
A: 3/54

Q: What about the “Number of cells in which neurites appeared/total number of cells” value ([2]; 48 hours, 0.5 mM) of the same molecule?
A: 2/50

Q: Which “Number … of each cell/total number of cells” value ([1]; 0.01 mM) does the source give for `CN(C(=O)c1ccccc1)c1ccnc(N2CCNCC2)n1` [Compound 344] here?
A: 3.6 ± 0.7%

Q: And the “Number … of each cell/total number of cells” value ([1]; 0.03 mM)?
A: 4.0 ± 1.7%

Q: What about the “Number … of each cell/total number of cells” value ([1]; 0.1 mM) of the same molecule?
A: 4.7 ± 1.8%

Q: What about the “Number … of each cell/total number of cells” value ([1]; 0.3 mM) of the same molecule?
A: 4.5 ± 2.1%

Q: What about the “Number of cells in which neurites appeared/total number of cells” value ([2]; 24 hours, 0.2 mM) of the same molecule?
A: 3/51

Q: And the “Number of cells in which neurites appeared/total number of cells” value ([2]; 48 hours, 0.5 mM)?
A: 2/49

Q: `CC(=O)N(C)c1cc(C)nc(N2CCCCC2)n1` [Compound 384] was tested. Which “Number … of each cell/total number of cells” value ([1]; 0.3 mM) did it give?
A: 10.4 ± 2.5%

Q: What about the “Number … of each cell/total number of cells” value ([1]; 1 mM) of the same molecule?
A: 10.8 ± 7.2%

Q: And the “Number of cells in which neurites appeared/total number of cells” value ([2]; 24 hours, 0.4 mM)?
A: 8/50

Q: What about the “Number of cells in which neurites appeared/total number of cells” value ([2]; 48 hours, 0.4 mM) of the same molecule?
A: 3/50

Q: Which “Number … of each cell/total number of cells” value ([1]; 0.1 mM) does the source give for `CC(=O)N(C)c1nc(N2CCC(c3ccccc3)CC2)ncc1C` [Compound 416] here?
A: 13.2 ± 1.3%

Q: And the “Number … of each cell/total number of cells” value ([1]; 0.3 mM)?
A: 10.8 ± 1.5%

Q: And the “Number of cells in which neurites appeared/total number of cells” value ([2]; 24 hours, 0.1 mM)?
A: 7/50

Q: And the “Number of cells in which neurites appeared/total number of cells” value ([2]; 24 hours, 0.4 mM)?
A: 11/50

Q: What about the “Number of cells in which neurites appeared/total number of cells” value ([2]; 48 hours, 0.1 mM) of the same molecule?
A: 2/50

Q: Which results are given for `CN(C(=O)c1ccccc1)c1nc(N2CCC(c3ccccc3)CC2)ncc1F` [Compound 432]?
A: Number of cells having neurites with a length at least two times the diameter of each cell/total number of cells ([1]; 0.1 mM): 2.9 ± 1.0%; Number of cells having neurites with a length at least two times the diameter of each cell/total number of cells ([1]; 0.3 mM): 3.6 ± 1.7%; Number of cells in which neurites appeared/total number of cells ([2]; 24 hours, 0.02 mM): 7/50; Number of cells in which neurites appeared/total number of cells ([2]; 24 hours, 0.4 mM): 7/50; Number of cells in which neurites appeared/total number of cells ([2]; 48 hours, 0.4 mM): 4/50

Q: How did the “Number … of each cell/total number of cells” value ([1]; 0.1 mM) turn out when `CCOC(=O)c1cnc(N2CCCCC2)nc1CNC` [Compound 812] was run?
A: 3.5 ± 0.5%

Q: What about the “Number … of each cell/total number of cells” value ([1]; 0.3 mM) of the same molecule?
A: 3.4 ± 0.5%

Q: What about the “Number of cells in which neurites appeared/total number of cells” value ([2]; 24 hours, 0.5 mM) of the same molecule?
A: 9/50

Q: And the “Number of cells in which neurites appeared/total number of cells” value ([2]; 24 hours, 1.0 mM)?
A: 11/50

Q: What about the “Number of cells in which neurites appeared/total number of cells” value ([2]; 48 hours, 0.3 mM) of the same molecule?
A: 9/50

Q: What about the “Number of cells in which neurites appeared/total number of cells” value ([2]; 48 hours, 0.5 mM) of the same molecule?
A: 5/51

Q: For `COCc1nc(N2CCCCC2)ncc1C(=O)OC` [Compound 820, 2-piperidino-4-methoxymethyl-5-methoxycarbonylpyrimidine], which “Number … of each cell/total number of cells” value ([1]; 1 mM) is on record?
A: 8.4 ± 1.1%

Q: What about the “Number … of each cell/total number of cells” value ([1]; 3 mM) of the same molecule?
A: 8.8 ± 2.3%

Q: What about the “Number of cells in which neurites appeared/total number of cells” value ([2]; 24 hours, 0.1 mM) of the same molecule?
A: 4/50

Q: What about the “Number of cells in which neurites appeared/total number of cells” value ([2]; 24 hours, 0.5 mM) of the same molecule?
A: 5/53

Q: What about the “Number of cells in which neurites appeared/total number of cells” value ([2]; 48 hours, 0.1 mM) of the same molecule?
A: 4/50

Q: And the “Number of cells in which neurites appeared/total number of cells” value ([2]; 48 hours, 0.25 mM)?
A: 5/55
